Results published in ChEMBL document CHEMBL4699427, “A3- and A2B-fluorocorroles: synthesis, X-ray characterization and antiviral activity evaluation against human cytomegalovirus infection” (RSC Med Chem, 2020).
The source made the active and inactive calls. The rule behind the calls is not given here.

What was measured:
Human betaherpesvirus 5 [1] = test: Antiviral activity against human Cytomegalovirus UL56 infected in human MRC5 cells assessed as reduction in infection rate incubated for 6 days by Hoechst 33342 staining based microscopic analysis; assay type: functional, cell-based; conditions: Human betaherpesvirus 5, UL56, MRC5, 144 h
Human betaherpesvirus 5 [2] = test: Antiviral activity against human Cytomegalovirus infected in human MRC5 cells assessed as reduction in viral replication incubated for 6 days by Hoechst 33342 staining based microscopic analysis; assay type: functional, cell-based; conditions: Human betaherpesvirus 5, MRC5, 144 h
Human betaherpesvirus 5 [3] = test: Antiviral activity against human Cytomegalovirus infected in human ARPE-19 cells assessed as reduction in viral replication incubated for 13 days by Hoechst 33342 staining based microscopic analysis; assay type: functional, cell-based; conditions: Human betaherpesvirus 5, ARPE-19, 312 h
[4] = Cytotoxicity against human MRC5 cells assessed as reduction in cell viability incubated for 6 days by Hoechst 33342 staining based microscopic analysis; conditions: time 6 day
[5] = Selectivity index, ratio of CC50 for human MRC5 cells to IC50 for human Cytomegalovirus infected in human ARPE-19 cells incubated for 13 days; assay type: toxicity, cell-based; conditions: time 6 day, read-out: Ratio CC50/IC50
Human betaherpesvirus 5 [6] = test: Antiviral activity against human Cytomegalovirus infected in human ARPE-19 cells assessed as reduction in viral replication incubated for 12 days by Hoechst 33342 staining based microscopic analysis; assay type: functional, cell-based; conditions: Human betaherpesvirus 5, ARPE-19, 288 h
[7] = Selectivity index, ratio of CC50 for human MRC5 cells to IC50 for human Cytomegalovirus infected in human MRC5 cells incubated for 6 days; assay type: toxicity, cell-based; conditions: time 6 day, read-out: Ratio CC50/IC50
Human betaherpesvirus 5 [8] = test: Antiviral activity against human Cytomegalovirus infected in human MRC5 cells assessed as reduction in infection rate at 0.187 to 3 uM treated 24 hrs after infection measured after 6 days by Hoechst 33342 staining based microscopic analysis; assay type: functional, cell-based; conditions: dose microM 0.187-3, time 6.0 day
[9] = Selectivity index, ratio of CC50 for human MRC5 cells to IC50 for human Cytomegalovirus infected in human ARPE-19 cells incubated for 12 days; assay type: toxicity, cell-based; conditions: time 6 day, read-out: Ratio CC50/IC50
Human betaherpesvirus 5 [10] = test: Antiviral activity against human Cytomegalovirus harboring ANCHOR assessed as reduction in infection rate incubated for 1 hr followed by cell line addition and measured after 24 hrs by Hoechst 33342 staining based microscopic analysis; assay type: functional; conditions: ARPE-19, dose microM 0.187-3, time 25.0 hrs
Human betaherpesvirus 5 [11] = test: Induction of viral absorption in human Cytomegalovirus harboring ANCHOR infected in human ARPE-19 cells at 0.187 to 3 uM incubated for 18 hrs post infection by Hoechst 33342 staining based microscopic analysis; assay type: functional, organism-based; conditions: dose microM 0.187-3, time 18.0 hrs
Human betaherpesvirus 5 [12] = test: Induction of viral entry in human Cytomegalovirus harboring ANCHOR infected in human ARPE-19 cells at 0.187 to 3 uM incubated for 18 hrs by Hoechst 33342 staining based microscopic analysis; assay type: functional, organism-based; conditions: dose microM 0.187-3, time 18.0 hrs
Human betaherpesvirus 5 [13] = test: Antiviral activity against human Cytomegalovirus harboring ANCHOR infected in ARPE-19 cells assessed as reduction in infection rate preincubated for 2 hrs with cells followed by infected with virus and measured after 24 hrs by Hoechst 33342 staining based microscopic analysis; assay type: functional, cell-based; conditions: dose microM 0.187-3, time 26.0 hrs
Human betaherpesvirus 5 [14] = test: Antiviral activity against human Cytomegalovirus infected in human ARPE-19 cells assessed as reduction in viral DNA replication at 0.187-3 uM incubated for 18 hrs by Hoechst 33342 staining based microscopic analysis; assay type: functional, cell-based; conditions: dose microM 0.187-3, time 18.0 hrs
RK13 = test: Effect on gB expression in human Cytomegalovirus harboring ANCHOR infected in rabbit RK13 cells assessed as reduction in replication at late phase by at 5 uM by immunofluorescence assay; assay type: functional, cell-based; conditions: Human betaherpesvirus 5
Human betaherpesvirus 5 [15] = test: Induction of viral entry in human Cytomegalovirus harboring ANCHOR infected in human MRC-5 cells at 0.187 to 3 uM incubated for 18 hrs by Hoechst 33342 staining based microscopic analysis; assay type: functional, organism-based; conditions: MRC5, dose microM 0.187-3, time 18.0 hrs
Human betaherpesvirus 5 [16] = test: Antiviral activity against human Cytomegalovirus infected in human MRC5 cells assessed as reduction in viral replication at 0.75 uM incubated for 6 days by Hoechst 33342 staining based microscopic analysis; assay type: functional, cell-based; conditions: time 6.0 day
Human betaherpesvirus 5 [17] = test: Antiviral activity against human Cytomegalovirus infected in human MRC5 cells assessed as reduction in infection rate at 0.187 to 3 uM preincubated for 1 hr with cells by Hoechst 33342 staining based microscopic analysis; assay type: functional, cell-based; conditions: dose microM 0.187-3, time 1.0 hrs
Human betaherpesvirus 5 [18] = test: Antiviral activity against human Cytomegalovirus harboring ANCHOR infected in human ARPE-19 cells assessed as reduction in viral infection rate at 0.187 to 3 uM incubated for 18 hrs post infection by Hoechst 33342 staining based microscopic analysis; assay type: functional, cell-based; conditions: dose microM 0.187-3, time 18.0 hrs
Human betaherpesvirus 5 [19] = test: Virucidal activity against human Cytomegalovirus infected in APRE-19 cells at 0.187 to 3 uM preincubated for 1 hr with virus followed by cell line addition and measured after 24 hrs by Hoechst 33342 staining based microscopic analysis; assay type: functional; conditions: ARPE-19, dose microM 0.187-3, time 25.0 hrs
Human betaherpesvirus 5 [20] = test: Induction of viral absorption in human Cytomegalovirus harboring ANCHOR infected in human MRC-5 cells at 0.187 to 3 uM incubated for 18 hrs post infection by Hoechst 33342 staining based microscopic analysis; assay type: functional, organism-based; conditions: MRC5, dose microM 0.187-3, time 18.0 hrs
Human betaherpesvirus 5 [21] = test: Antiviral activity against human Cytomegalovirus harboring ANCHOR assessed as reduction in viral DNA replication incubated for 1 hr followed by cell line addition and measured after 24 hrs by Hoechst 33342 staining based microscopic analysis; assay type: functional; conditions: ARPE-19, dose microM 0.187-3, time 25.0 hrs
Human betaherpesvirus 5 [22] = test: Antiviral activity against Human Cytomegalovirus infected in human MRC5 cells assessed as reduction in infection rate incubated for 6 days by Hoechst 33342 staining based microscopic analysis; assay type: functional, cell-based; conditions: Human betaherpesvirus 5, MRC5, 144 h; read-out: IC50
Human betaherpesvirus 5 [23] = test: Antiviral activity against human Cytomegalovirus infected in human ARPE-19 cells assessed as reduction in virus-induced cytopathic effect at 0.75 uM incubated for 10 days by Hoechst 33342 staining based microscopic analysis; assay type: functional, cell-based; conditions: time 10.0 day
Human betaherpesvirus 5 [24] = test: Antiviral activity against human Cytomegalovirus harboring ANCHOR infected in ARPE-19 cells assessed as reduction in viral DNA replication preincubated for 2 hrs with cells followed by infected with virus and measured after 24 hrs by Hoechst 33342 staining based microscopic analysis; assay type: functional, cell-based; conditions: dose microM 0.187-3, time 26.0 hrs
Human betaherpesvirus 5 [25] = test: Virucidal activity against human Cytomegalovirus infected in MRC-5 cells at 0.187 to 3 uM preincubated for 1 hr with virus followed by cell line addition and measured after 24 hrs by Hoechst 33342 staining based microscopic analysis; assay type: functional; conditions: MRC5, dose microM 0.187-3, time 25.0 hrs
Human betaherpesvirus 5 [26] = test: Antiviral activity against Human cytomegalovirus harboring ANCHOR infected in ARPE-19 cells assessed as reduction in viral infection at 0.75 uM measured after 6 days by microscopic analysis relative to control; assay type: functional, cell-based; conditions: time 6.0 day
Human betaherpesvirus 5 [27] = test: Antiviral activity against human Cytomegalovirus infected in human MRC5 cells assessed as reduction in viral infection rate at 0.75 uM incubated for 6 days by Hoechst 33342 staining based microscopic analysis; assay type: functional, cell-based; conditions: time 6.0 day
Human betaherpesvirus 5 [28] = test: Antiviral activity against human Cytomegalovirus infected in human ARPE-19 cells assessed as reduction in infection rate incubated for 12 days by Hoechst 33342 staining based microscopic analysis; assay type: functional, cell-based; conditions: Human betaherpesvirus 5, ARPE-19, 288 h
[29] = Drug metabolism in human ARPE-19 cell culture at 10 uM incubated for 10 days; assay type: ADME; conditions: arpe-19, 240 h, time 10 day
[30] = Drug uptake in rabbit RK13 cells incubated for 24 hrs by Hoechst staining based microscopic analysis; assay type: ADME, cell-based, Oryctolagus cuniculus; conditions: rk13, 24 h
Human betaherpesvirus 5 [31] = test: Antiviral activity against ganciclovir resistant Cytomegalovirus UL54 D301N infected in human MRC5 cells assessed as reduction in viral DNA replication incubated for 6 days by Hoechst 33342 staining based microscopic analysis; assay type: functional, cell-based; conditions: time 6.0 day
Human betaherpesvirus 5 [32] = test: Antiviral activity against letermovir resistant Cytomegalovirus UL56 R369G infected in human MRC5 cells assessed as reduction in infection rate at 600 nM incubated for 6 days by Hoechst 33342 staining based microscopic analysis; assay type: functional, cell-based; conditions: time 6.0 day
[33] = Selectivity index, ratio of CC50 for human MRC5 cells to IC50 for human Cytomegalovirus infected in human ARPE-19 cells incubated for 10 days; assay type: toxicity, cell-based; conditions: time 6 day, read-out: Ratio CC50/IC50
Human betaherpesvirus 5 [34] = test: Antiviral activity against ganciclovir resistant Cytomegalovirus UL54 D301N infected in human MRC5 cells assessed as reduction in infection rate incubated for 6 days by Hoechst 33342 staining based microscopic analysis; assay type: functional, cell-based; conditions: time 6.0 day
Human betaherpesvirus 5 [35] = test: Antiviral activity against human Cytomegalovirus infected in human ARPE-19 cells assessed as reduction in infection rate incubated for 10 days by Hoechst 33342 staining based microscopic analysis; assay type: functional, cell-based; conditions: Human betaherpesvirus 5, ARPE-19, 240 h; read-out: IC50
[36] = Cytotoxicity against human MRC5 cells assessed as assessed as number of fluorescent nuclei incubated for 6 days by Hoechst 33342 staining based microscopic analysis; assay type: cell-based; conditions: time 6 day
[37] = Cytotoxicity against human ARPE-19 cells assessed as assessed as number of fluorescent nuclei incubated for 6 days by Hoechst 33342 staining based microscopic analysis; assay type: cell-based; conditions: time 6 day

Structure (SMILES): COc1cccc(N2CCN(C3=Nc4c(F)cccc4[C@H](CC(=O)O)N3c3cc(C(F)(F)F)ccc3OC)CC2)c1 [LETERMOVIR]
- IC50 (Human betaherpesvirus 5 [1]): 4 nM

Structure (SMILES): Fc1ccc(F)c(-c2c3nc(c4ccc([nH]4)c(-c4c(F)ccc(F)c4F)c4ccc([nH]4)c(-c4c(F)ccc(F)c4F)c4ccc2[nH]4)C=C3)c1F
- IC50 (Human betaherpesvirus 5 [2]): 1800 nM
- IC50 (Human betaherpesvirus 5 [3]): 2300 nM
- CC50 at 144 h [4]: > 50000 nM
- selectivity ratio at 144 h [5]: > 21
- IC50 (Human betaherpesvirus 5 [6]): 2300 nM
- selectivity ratio at 144 h [7]: > 28

Structure (SMILES): Fc1c(F)c(F)c(-c2c3nc(c4ccc([nH]4)c(-c4c(F)c(F)c(F)c(F)c4F)c4ccc([nH]4)c(-c4c(F)c(F)c(F)c(F)c4F)c4ccc2[nH]4)C=C3)c(F)c1F
- Activity (Human betaherpesvirus 5 [8]): Active
- CC50 at 144 h [4]: 3270 nM
- selectivity ratio at 144 h [9]: 27
- Activity (Human betaherpesvirus 5 [10]): Dose-dependent effect
- Activity (Human betaherpesvirus 5 [11]): Active
- Activity (Human betaherpesvirus 5 [12]): Active
- Activity (Human betaherpesvirus 5 [13]): inactive
- Activity (Human betaherpesvirus 5 [14]): Active
- Activity (RK13): Active
- Activity (Human betaherpesvirus 5 [15]): Dose-dependent effect
- Activity (Human betaherpesvirus 5 [16]): Active
- Activity (Human betaherpesvirus 5 [17]): inactive
- Activity (Human betaherpesvirus 5 [18]): inactive
- Activity (Human betaherpesvirus 5 [19]): inactive
- Activity (Human betaherpesvirus 5 [20]): Dose-dependent effect
- Activity (Human betaherpesvirus 5 [21]): Dose-dependent effect
- IC50 (Human betaherpesvirus 5 [22]): 1190 nM
- Activity (Human betaherpesvirus 5 [23]): Active
- Activity (Human betaherpesvirus 5 [24]): inactive
- Activity (Human betaherpesvirus 5 [25]): inactive
- Activity (Human betaherpesvirus 5 [26]): Active
- Activity (Human betaherpesvirus 5 [27]): Active
- selectivity ratio at 144 h [7]: 2.75
- IC50 (Human betaherpesvirus 5 [28]): 960 nM

Structure (SMILES): Fc1cc(F)c(F)c(-c2c3nc(c4ccc([nH]4)c(-c4c(F)c(F)cc(F)c4F)c4ccc([nH]4)c(-c4c(F)c(F)c(F)c(F)c4F)c4ccc2[nH]4)C=C3)c1F
- Drug metabolism [29]: Metabolite_Notdetected
- CC50 at 144 h [4]: 16200 nM
- Drug uptake [30]: Active
- Activity (Human betaherpesvirus 5 [31]): Active
- Activity (Human betaherpesvirus 5 [32]): Active
- IC50 (Human betaherpesvirus 5 [22]): 650 nM
- selectivity ratio at 144 h [33]: 416
- Activity (Human betaherpesvirus 5 [34]): Active
- selectivity ratio at 144 h [7]: 24.9
- IC50 (Human betaherpesvirus 5 [35]): 20 nM

Structure (SMILES): Fc1cc(F)c(F)c(-c2c3nc(c4ccc([nH]4)c(-c4c(F)c(F)cc(F)c4F)c4ccc([nH]4)c(-c4c(F)c(F)cc(F)c4F)c4ccc2[nH]4)C=C3)c1F
- CC50 at 144 h [4]: 25300 nM
- selectivity ratio at 144 h [9]: > 312
- CC50 at 144 h [36]: 3400 nM
- IC50 (Human betaherpesvirus 5 [22]): 1040 nM
- CC50 at 144 h [37]: 22500 nM
- selectivity ratio at 144 h [7]: > 24
- IC50 (Human betaherpesvirus 5 [28]): 160 nM
